Assay results published in paper PMC9490236, “Accurate de novo design of membrane-traversing macrocycles” (Cell, 2022).
Where a SMILES comes first, the peptide text is derived from it. [ ]: non-standard residue; d: D form. ξ: configuration not given here. NMeI = CC[C@H](C)[C@H](NC)C(=O)O; dIle(3ξ) = CCC(C)[C@@H](N)C(=O)O; dNMeF = CN[C@H](Cc1ccccc1)C(=O)O; NMeL = CN[C@@H](CC(C)C)C(=O)O; dNMeL = CN[C@H](CC(C)C)C(=O)O; NMeA = CN[C@@H](C)C(=O)O; dNMeA = CN[C@H](C)C(=O)O; Aib = CC(C)(N)C(=O)O

Assays:
[1] = PAMPA
in vitro = conditions: PAMPA, PAMPA_Papp_Avg
Caco-2 cells = experiment: Caco-2 permeability assay (apical to basolateral); format: in vitro ADME, human; conditions: Caco-2
Protocol: (§1) Human colon adenocarcinoma-derived Caco-2 cell line was used as a model system to investigate the intestinal epithelial permeability of our designs. Caco-2 cells were propagated in T125 flasks (Corning, Merck) using Dulbecco’s modified Eagle medium supplemented with 10% (v/v) fetal bovine serum, 1% (v/v) nonessential amino acids, and 1% (v/v) penicillin-streptomycin (Gibco, Thermo Fisher Scientific) at 37°C in an atmosphere of 5% CO2. Cells were subcultured when they reached 80% confluence.
(§2) The permeability of designed peptides was evaluated using an accelerated 6-day Caco-2 permeability assay as described previously ([Sevin et al., 2013]). In brief, cells were seeded into the 12-well Transwell plates with 0.4 μm polyester membrane inserts (Corning, Merck) to give 4.0 × 10^5 cells/well. The complete assay medium contained Dulbecco’s modified Eagle medium supplemented with 10% (v/v) fetal bovine serum, 1% (v/v) nonessential amino acids, and 0.4 μg/mL puromycin. The medium in plates was renewed every second day. The inserts received 0.75 mL of assay medium in the upper compartment (apical chamber) and 1.5 mL in the bottom compartment (basolateral chamber) individually. After 6-day incubation or until the cells formed monolayers, the medium in the apical and basolateral chamber was replaced with peptide solutions at 50 μM or Hanks' Balanced Salt Solution (HBSS), separately. The plates were incubated for 90 min at 37°C on an orbital shaker (60 rpm). The peptide concentration of solutions in the apical and basolateral compartments was subsequently quantified using LC-MS (Qstar Elite, AB Sciex Australia) to evaluate the transmembrane flux of peptides in the apical-to-basolateral direction. Membrane integrity of the Caco-2 cell monolayer was validated using trans-epithelial electrical resistance (TEER) measurements before and after the assays. Atenolol and quinidine were included as negative and positive controls in all assays.

[2] = Caco-2 permeability assay (apical to basolateral); format: in vitro ADME, human; conditions: for Papp A→B: Caco-2, Caco_Papp_Average; for Papp at 90 min, 50 µM: human, Caco-2
Protocol: as §1, §2

SMILES	PAMPA_R1 [1]	PAMPA_R3 [1]	Papp (in vitro) [×10⁻⁶ cm/s]	Caco_R1 (Caco-2 cells)	Caco_R3 (Caco-2 cells)	Papp A→B [2] [×10⁻⁶ cm/s]	Papp at 90 min, 50 µM [2] [×10⁻⁶ cm/s]
CC(C)C[C@@H]1NC(=O)[C@H](Cc2ccccc2)NC(=O)[C@@H](CC(C)C)NC(=O)[C@H]2CCCN2C(=O)[C@H](C(C)C)NC(=O)[C@@H](CC(C)C)NC(=O)[C@H]2CCCN2C(=O)[C@@H]2CCCN2C1=O [Design D8.5.p2, PHE LEU PRO DPRO DLEU VAL DPRO DLEU] (cyclo(FLP[dP][dL]V[dP][dL]))	5.46E-06	5.67E-06	5.8	17.839	20.36	21.4	–
CC(C)C[C@@H]1NC(=O)[C@H]2CCCN2C(=O)[C@@H]2CCCN2C(=O)[C@H](CC(C)C)NC(=O)[C@@H](CC(C)C)NC(=O)[C@@H](C)N(C)C(=O)[C@@H](C)N(C)C(=O)[C@@H](C(C)C)NC1=O [Design D8.6, LEU PRO DPRO LEU DVAL *DALA *DALA DLEU] (cyclo(LP[dP]L[dV][dNMeA][dNMeA][dL]))	3.54E-06	3.44E-06	3.35	0.86	0.45	0.737	–
CC[C@@H](C)[C@H]1NC(=O)[C@@H](CC(C)C)N(C)C(=O)[C@@H]2CCCN2C(=O)[C@@H]([C@H](C)CC)NC(=O)[C@@H](CC(C)C)NC(=O)[C@@H](CC(C)C)N(C)C(=O)[C@@H]2CCCN2C(=O)[C@@H](C(C)C)NC1=O [Design D8.8, PRO *DLEU DLEU DILE PRO *DLEU DILE DVAL] (cyclo(P[dNMeL][dI][dV]P[dNMeL][dL][dI]))	9.54E-06	3.47E-06	5.9	20.91	24.11	23	–
CC(C)C[C@@H]1C(=O)N[C@H](CC(C)C)C(=O)N2CCC[C@@H]2C(=O)N2CCC[C@@H]2C(=O)N(C)[C@@H](C)C(=O)N[C@H](Cc2ccccc2)C(=O)N[C@@H](C)C(=O)N(C)[C@@H](CC(C)C)C(=O)N1C [Design D8.10, DPRO DPRO *ALA DPHE ALA *LEU *DLEU DLEU] (cyclo(A[NMeL][dNMeL][dL][dP][dP][NMeA][dF]))	8.77E-07	1.78E-06	1.23	3.8	3.36	3.91	–
CC[C@H](C)[C@@H]1NC(=O)[C@H]2CCCN2C(=O)[C@@H]2CCCN2C(=O)[C@@H](C(C)C)NC(=O)[C@@H](C)N(C)C(=O)[C@H](C)N(C)C(=O)[C@@H](CC(C)C)N(C)C(=O)[C@@H](C(C)C)NC1=O [Design D8.26, DVAL *DLEU *ALA *DALA DVAL PRO DPRO ILE] (cyclo(I[dV][dNMeL][NMeA][dNMeA][dV]P[dP]))	1.58E-07	2.69E-07	0.255	0.79	0.94	0.647	–
CC(C)C[C@@H]1NC(=O)[C@H](CC(C)C)N(C)C(=O)[C@H]2CCCN2C(=O)[C@@H](C)NC(=O)[C@@H](C)N(C)C(=O)[C@@H](C(C)C)NC(=O)[C@@H](CC(C)C)N(C)C(=O)[C@@H]2CCCN2C1=O [Design D8.30, DALA DPRO *LEU LEU PRO *DLEU DVAL *DALA] (cyclo(LP[dNMeL][dV][dNMeA][dA][dP][NMeL]))	4.61E-06	4.25E-06	4.32	4.11	2.89	3.97	–
CC(C)C[C@@H]1C(=O)N[C@H](CC(C)C)C(=O)N2CCC[C@@H]2C(=O)N2CCC[C@@H]2C(=O)N(C)[C@@H](CC(C)C)C(=O)N[C@H](CC(C)C)C(=O)N2CCC[C@@H]2C(=O)N2CCC[C@H]2C(=O)N1C [Design D8.32, DPRO DPRO *LEU DLEU DPRO PRO *DLEU DLEU] (cyclo([dNMeL][dL][dP][dP][NMeL][dL][dP]P))	5.82E-06	5.16E-06	5.37	2.78	2.54	2.73	–
CC[C@@H](C)[C@H]1NC(=O)[C@H]2CCCN2C(=O)[C@@H]2CCCN2C(=O)[C@@H]([C@H](C)CC)NC(=O)[C@@H](Cc2ccccc2)NC(=O)[C@@H](Cc2ccccc2)N(C)C(=O)[C@@H]2CCCN2C(=O)[C@@H](C(C)C)NC1=O [Design D8.33, DPHE DILE PRO DPRO DILE DVAL PRO *DPHE] (cyclo(P[dNMeF][dF][dI]P[dP][dI][dV]))	5.91E-06	1.01E-05	6.72	18.4	16.82	19.1	> 10
CC[C@H](C)[C@@H]1NC(=O)[C@@H](CC(C)C)N(C)C(=O)[C@@H]2CCCN2C(=O)[C@H](C(C)C)NC(=O)C(C)(C)NC(=O)[C@H](CC(C)C)NC(=O)C(C)(C)NC(=O)[C@@H]2CCCN2C(=O)[C@H]2CCCN2C1=O [Design D9.1, DPRO PRO AIB LEU AIB VAL PRO *DLEU ILE] (cyclo([Aib]L[Aib]VP[dNMeL]I[dP]P))	1.43E-06	1.63E-06	1.59	0.42	2.09	0.897	–
CC[C@@H](C)[C@H]1NC(=O)[C@H](CC(C)C)NC(=O)[C@@H](CC(C)C)NC(=O)[C@H](C(C)C)NC(=O)[C@@H](Cc2ccccc2)N(C)C(=O)[C@@H]2CCCN2C(=O)[C@@H](CC(C)C)NC(=O)[C@H](CC(C)C)N(C)C(=O)[C@H]2CCCN2C1=O [Design D9.3, LEU DILE DPRO *LEU DLEU PRO *DPHE VAL DLEU] (cyclo(L[dI][dP][NMeL][dL]P[dNMeF]V[dL]))	3.06E-06	2.01E-06	2.33	2.82	3.81	3.53	–
CCC(C)[C@H]1NC(=O)[C@H](CC(C)C)NC(=O)[C@@H](C)N(C)C(=O)[C@@H]2CCCN2C(=O)[C@H](C)NC(=O)[C@@H](CC(C)C)NC(=O)[C@H]2CCCN2C(=O)[C@H](C(C)C)NC(=O)[C@@H](CC(C)C)N(C)C1=O (stereo partly drawn) [Design D9.30, DPRO DLEU ALA PRO *DALA LEU DILE *DLEU VAL] (cyclo(AP[dNMeA]L[dIle(3ξ)][dNMeL]V[dP][dL]))	1.58E-06	1.58E-06	1.6	1.9	2.72	2.32	–
CC[C@@H](C)[C@H]1NC(=O)[C@H](CC(C)C)N(C)C(=O)[C@H]2CCCN2C(=O)[C@H](CC(C)C)NC(=O)[C@H](Cc2ccccc2)N(C)C(=O)[C@H](CC(C)C)N(C)C(=O)[C@@H](C(C)C)NC(=O)[C@H](C)NC(=O)[C@H]2CCCN2C(=O)[C@@H]2CCCN2C1=O [Design D10.17.p2, *LEU *PHE LEU DPRO *LEU DILE PRO DPRO ALA DVAL]	3.37E-06	2.91E-06	2.69	12.57	7.84	8.7	–
CC[C@H](C)[C@H]1C(=O)N[C@H](C)C(=O)N[C@@H](CC(C)C)C(=O)N[C@@H](C(C)C)C(=O)N2CCC[C@@H]2C(=O)N(C)[C@@H](CC(C)C)C(=O)N[C@@H](C(C)C)C(=O)N2CCC[C@H]2C(=O)N(C)[C@H](CC(C)C)C(=O)N[C@@H](C(C)C)C(=O)N1C [Design D10.19, DALA LEU VAL DPRO *LEU VAL PRO *DLEU VAL *ILE] (cyclo(LV[dP][NMeL]VP[dNMeL]V[NMeI][dA]))	7.24E-06	7.38E-06	6.36	15.38	17.24	17.1	> 10
CC[C@@H](C)[C@H]1NC(=O)[C@H](Cc2ccccc2)NC(=O)[C@@H](CC(C)C)N(C)C(=O)[C@@H]2CCCN2C(=O)[C@@H](C(C)C)NC(=O)[C@@H](C)N(C)C(=O)[C@H]2CCCN2C(=O)[C@@H](CC(C)C)NC(=O)[C@H](CC(C)C)NC(=O)[C@@H]2CCCN2C1=O [Design D10.30, PRO *DLEU PHE DILE PRO LEU DLEU DPRO *DALA DVAL] (cyclo(F[dI]PL[dL][dP][dNMeA][dV]P[dNMeL]))	5.23E-06	4.05E-06	4.78	15.3	15.5	16.1	> 10
CC[C@H](C)[C@@H]1NC(=O)[C@@H](CC(C)C)NC(=O)[C@@H](C)N(C)C(=O)[C@H](Cc2ccccc2)NC(=O)[C@@H](CC(C)C)NC(=O)[C@@H](C)N(C)C(=O)[C@@H]2CCCN2C(=O)[C@H](C(C)C)NC(=O)[C@H]2CCCN2C(=O)[C@@H]2CCCN2C1=O [Design D10.31, PHE *DALA DLEU ILE PRO DPRO VAL PRO *DALA DLEU] (cyclo(F[dNMeA][dL]IP[dP]VP[dNMeA][dL]))	1.81E-06	2.20E-06	1.9	1.93	3.02	2.79	–
